Data published in patent publication US20040180082A1, “Submicron-liposome containing triterpenoid and a method for preparing the same” (AMOREPACIFIC CORPORATION, priority 2002, published 2004).

Assay: Wide angle X-ray diffraction of frozen-dried liposome
Type: physicochemical
Settings: 2θ value at maximum diffraction no more increasing; FIGS. 2 and 3
Protocol: The structures and the crystallinities (crystalline property) of the liposome were analyzed with powder XRD equipped with wide-angle diffractometer (Rigaku/USA, D/max-RB) using Cu-Kα (λ=1.54 Å) ray. The oleanolic acid (OA) and liposome prepared in Examples 1, 3, 4, 5 and 6 and frozen-dried were analyzed by X-ray diffraction in wide-angle (θ=2-50°), and the structures of hydrocarbon chains and the molecular distances of oleanolic acid (OA) crystals were determined by the result of the X-ray diffraction. […] Diffractions in a wide range of near 20° were observed because lipids formed smectic (lamellar) liquid-crystal phase, which correspond to the distances between lipid molecules.

For `CC1(C)CC[C@]2(C(=O)O)CC[C@]3(C)C(=CC[C@@H]4[C@@]5(C)CC[C@H](O)C(C)(C)[C@@H]5CC[C@]43C)[C@@H]2C1` [OA, oleanolic acid], the “content of OA at which OA is saturated in the bi-layer of the liposome” value was 25.4 mole %.
